Measured values taken from ChEMBL document CHEMBL1132596, “Non-peptide corticotropin-releasing hormone antagonists: syntheses and structure-activity relationships of 2-anilinopyrimidines and -triazines” (J Med Chem, 1999).
Where “and” joins values, the source holds several entries; their conditions need not be identical. Equal entries are not always repeated.

Test system: not listed separately
Test: the half life period was measured in rat at dose 30 mg/kg after intravenous administration.
Type: ADME, organism-based
Parameters: dose 30 mg/kg, route intravenous
Details: in vivo

Row | Structure (SMILES) | half-life [h]
1 | CCN(c1nc(C)cc(C)n1)c1c(Br)cc(OC)cc1OC | 5.9

Test system: not listed separately
Test: The bioavailability measured as F(%) on rat at dose 30 mg/kg […].
Type: ADME, organism-based
Details: in vivo

Row | Structure (SMILES) | bioavailability [%]
2 | CCN(c1nc(C)cc(C)n1)c1c(Br)cc(OC)cc1OC | 26

Molecular target: T1, Corticotropin-releasing factor receptor 1 (Homo sapiens, UniProt P34998)
T1 sequence (P34998 whole entry): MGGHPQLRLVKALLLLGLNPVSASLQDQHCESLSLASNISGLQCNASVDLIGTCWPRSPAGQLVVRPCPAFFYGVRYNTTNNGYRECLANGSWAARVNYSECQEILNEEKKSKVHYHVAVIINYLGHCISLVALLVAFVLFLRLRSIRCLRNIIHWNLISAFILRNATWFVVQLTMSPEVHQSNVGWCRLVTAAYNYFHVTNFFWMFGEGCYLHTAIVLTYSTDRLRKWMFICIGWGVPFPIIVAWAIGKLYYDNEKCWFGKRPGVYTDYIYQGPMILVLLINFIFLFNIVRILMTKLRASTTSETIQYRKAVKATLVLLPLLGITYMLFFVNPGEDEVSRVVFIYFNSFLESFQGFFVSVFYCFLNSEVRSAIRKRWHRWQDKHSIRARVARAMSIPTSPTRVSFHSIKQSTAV
Test: Binding affinity for human recombinant corticotropin releasing factor receptor 1
Details: not given

Row | Structure (SMILES) | Ki
3 | CCCCN(CC)c1nc(C)nc(N(CC)c2c(C)cc(C)cc2C)n1 | 0.023 µM
4 | CCN(CC)c1cc(C)nc(N(CC)c2ccc(N(C)C)cc2Br)n1 | 0.027 µM
5 | CCCCN(CC)c1cc(C)nc(N(CC)c2ccc(I)cc2Br)n1 | 0.014 µM
6 | CCN(c1nc(C)cc(C)n1)c1c(Br)cc(C(C)C)cc1OC | 0.026 µM
7 | CCC(CC)Nc1nc(C)nc(N(CC)c2ccc(C(C)C)cc2Br)n1 | 0.041 µM
8 | CCN(CC)c1cc(C)nc(N(CC)c2c(Br)cc(C(C)C)cc2SC)n1 | 0.026 µM
9 | CCN(CC)c1nc(C)nc(N(CC)c2ccc(N(C)C)cc2C(F)(F)F)n1 | 0.02 µM
10 | CCCCN(CC#N)c1nc(C)nc(N(CC)c2ccc(N(C)C)cc2C(F)(F)F)n1 | 0.006 µM
11 | CCN(c1nc(C)cc(C)n1)c1ccc(N(C)C)cc1C | 0.054 µM
12 | CCN(c1nc(C)cc(N(CCOC)Cc2ccccc2)n1)c1ccc(C(C)C)cc1Br | 0.014 µM
13 | CCN(CC)c1cc(C)nc(N(CC)c2c(Cl)cc(Br)cc2Cl)n1 | 0.024 µM
14 | C=CCN(c1nc(C)nc(N(CC)c2ccc(C(C)C)cc2Br)n1)C1CC1 | 0.005 µM
15 | CCCCN(CC)c1nc(C)nc(N(CC)c2ccc(C(C)C)cc2Br)n1 | 0.005 µM
16 | CCN(CC)c1cc(C)nc(N(CC)c2c(Br)cc(C(C)=O)cc2OC)n1 | 0.028 µM
17 | CCCCN(Cc1nn[nH]n1)c1cc(C)nc(N(CC)c2ccc(C(C)C)cc2Br)n1 | > 1 µM
18 | CCN(CC)c1cc(C)nc(N(CC)c2c(Br)cc(Br)cc2OC)n1 | 0.031 µM
19 | CCN(c1nc(C)nc(N(CCOC)CC2CC2)n1)c1c(C)cc(C)cc1C | 0.025 µM
20 | CCCCN(CCOC)c1nc(C)nc(N(CC)c2c(C)cc(C)cc2C)n1 | 0.013 µM
21 | CCN(CC)c1cc(C)nc(N(CC)c2ccc(C(C)C)cc2Br)n1 | 0.022 µM and 0.03 µM
22 | CCN(c1nc(C)cc(C)n1)c1c(Br)cc(N(C)C)cc1OC | 0.005 µM
23 | C=CCNc1nc(C)nc(N(CC)c2ccc(C(C)C)cc2Br)n1 | 0.033 µM
24 | CCCN(CCC#N)c1nc(C)nc(N(CC)c2ccc(N(C)C)cc2C)n1 | 0.007 µM
25 | CCN(CC)c1nc(C)nc(N(CC)c2c(Br)cc(OC)cc2OC)n1 | 0.01 µM
26 | CCN(CC)c1cc(C)nc(N(CC)c2ccc(S(C)(=O)=O)cc2Br)n1 | 0.024 µM

Row | Structure (SMILES) | Ki
27 | CCN(CC)c1cc(C)nc(N(CC)c2ccc(C(C)=O)cc2Br)n1 | 0.005 µM
28 | CCN(CC)c1cc(C)nc(N(CC)c2ccc(SC)cc2Br)n1 | 0.024 µM
29 | CCC(CC)c1cc(C)nc(N(CC)c2ccc(C(C)C)cc2Br)n1 | 0.002 µM
30 | CCCN(CC1CC1)c1nc(C)nc(N(CC)c2ccc(N(C)C)cc2C(F)(F)F)n1 | 0.005 µM
31 | CCCN(CCOC)c1cc(C)nc(N(CC)c2ccc(C(C)C)cc2Br)n1 | 0.011 µM
32 | C=CCN(CC=C)c1nc(C)nc(N(CC)c2ccc(OC(F)(F)F)cc2Br)n1 | 0.004 µM
33 | CCN(CCOC)c1nc(C)nc(N(CC)c2c(C)cc(C)cc2C)n1 | 0.031 µM
34 | CCN(CCOC)c1cc(C)nc(N(CC)c2ccc(C(C)C)cc2Br)n1 | 0.022 µM
35 | CCC(CC)CNc1cc(C)nc(N(CC)c2ccc(C(C)C)cc2Br)n1 | 0.044 µM
36 | CCN(CC)c1nc(C)nc(N(CC)c2ccc(C(C)=O)cc2Br)n1 | 0.017 µM
37 | CCN(c1ccc(C(C)C)cc1)c1nc(C)cc(C)n1 | > 1 µM
38 | C=CCN(CC=C)c1nc(C)nc(N(CC)c2ccc(N(C)C)cc2Br)n1 | 0.003 µM
39 | CCCN(CCC)c1nc(C)nc(N(CC)c2ccc(N(C)C)cc2C)n1 | 0.007 µM
40 | CCN(c1nc(C)cc(C)n1)c1c(Br)cc(C(C)C)cc1SC | 0.051 µM
41 | CCN(c1nc(C)cc(C)n1)c1ccc(OC)cc1SC | 0.06 µM
42 | CCN(c1nc(C)cc(C)n1)c1ccc(N(C)C)cc1SC | 0.02 µM
43 | CCCN(CCC)c1nc(C)nc(N(CC)c2ccc(N(C)C)cc2C(F)(F)F)n1 | 0.006 µM
44 | CCN(c1nc(C)cc(N2CCNCC2)n1)c1ccc(C(C)C)cc1Br | > 1 µM
45 | CCN(c1nc(C)cc(C)n1)c1ccc(OC)cc1Br | 0.035 µM
46 | CCCN(CCC)c1nc(C)nc(N(CC)c2ccc(C(C)C)cc2Br)n1 | 0.004 µM
47 | CCN(CC)c1cc(C)nc(N(CC)c2ccc(N(C)C)cc2C(F)(F)F)n1 | 0.011 µM
48 | CCCCc1ccc(N(CC)c2nc(C)cc(C)n2)c(Br)c1 | > 0.1 µM
49 | CCCN(CC1CC1)c1cc(C)nc(N(CC)c2ccc(C(C)C)cc2Br)n1 | 0.009 µM
50 | CCCCN(CC)c1cc(C)nc(N(CC)c2ccc(C(C)C)cc2Br)n1 | 0.019 µM

Row | Structure (SMILES) | Ki
51 | CCN(CC)c1cc(C)nc(N(CC)c2c(Cl)cc(OC)cc2OC)n1 | 0.01 µM
52 | CCN(CC)c1cc(C)nc(N(CC)c2c(Br)cc(OC)cc2OC)n1 | 0.048 µM
53 | CCCN(c1cc(C)nc(N(CC)c2ccc(C(C)C)cc2Br)n1)C1CC1 | 0.005 µM
54 | CCN(CC)c1cc(C)nc(N(CC)c2ccc(I)cc2Br)n1 | 0.009 µM
55 | CCN(c1nc(C)cc(C)n1)c1ccc(C(C)=O)cc1SC | 0.09 µM
56 | CCCN(CCC#N)c1nc(C)nc(N(CC)c2ccc(N(C)C)cc2C(F)(F)F)n1 | 0.005 µM
57 | CCCCN(CC)c1nc(C)nc(N(CC)c2ccc(OC(F)(F)F)cc2Br)n1 | 0.005 µM
58 | CCN(c1nc(C)nc(N(CC2CC2)CC2CC2)n1)c1ccc(N(C)C)cc1C(F)(F)F | 0.005 µM
59 | CCN(CC)c1cc(C)nc(N(CC)c2c(Cl)cc(OC)cc2Cl)n1 | 0.015 µM
60 | CCN(Cc1ccccc1)c1cc(C)nc(N(CC)c2ccc(C(C)C)cc2Br)n1 | 0.017 µM
61 | CCN(c1nc(C)cc(N(CCOC)CCOC)n1)c1ccc(C(C)C)cc1Br | 0.025 µM
62 | CCN(c1nc(C)cc(C)n1)c1ccccc1Br | > 1 µM
63 | CCN(c1nc(C)nc(N(CCOC)CCOC)n1)c1ccc(C(C)C)cc1Br | 0.018 µM
64 | CCN(c1nc(C)cc(C)n1)c1ccc(C(C)(C)C)cc1Br | > 0.1 µM
65 | CCCCN(CC)c1cc(C)nc(N(CC)c2ccc(C(C)=O)cc2Br)n1 | 0.008 µM
66 | CCCCN(CCC#N)c1nc(C)nc(N(CC)c2ccc(N(C)C)cc2C)n1 | 0.008 µM
67 | CCc1cc(CC)nc(N(CC)c2ccc(C(C)C)cc2Br)n1 | > 0.1 µM
68 | CCN(CC)c1nc(C)nc(N(CC)c2ccc(N(C)C)cc2Br)n1 | 0.006 µM
69 | C=CCN(CC=C)c1nc(C)nc(N(CC)c2ccc(C(C)C)cc2Br)n1 | 0.004 µM
70 | CCN(c1nc(C)cc(N2CCCCC2)n1)c1ccc(C(C)C)cc1Br | 0.029 µM
71 | CCN(c1nc(C)cc(N2CCOCC2)n1)c1ccc(C(C)C)cc1Br | 0.022 µM
72 | CCCCN(CC#N)c1nc(C)nc(N(CC)c2ccc(N(C)C)cc2C)n1 | 0.008 µM
73 | CCCCN(Cc1nnnn1C)c1cc(C)nc(N(CC)c2ccc(C(C)C)cc2Br)n1 | 0.041 µM
74 | CCN(c1nc(C)cc(C)n1)c1c(Br)cc(OC)cc1OC | 0.012 µM

Test system: not listed separately
Test: The maximum concentration of the compound was measured in rat at dose 30 mg/kg after intravenous administration.
Type: ADME, organism-based
Parameters: dose 30 mg/kg, route intravenous
Details: in vivo

Row | Structure (SMILES) | Cmax [µM]
75 | CCN(c1nc(C)cc(C)n1)c1c(Br)cc(OC)cc1OC | 1.88

Test system: not listed separately
Test: Tmax is the time taken to reach maximum concentration was measured on rat at dose 30 mg/kg after intravenous administration.
Type: ADME, organism-based
Parameters: dose 30 mg/kg, route intravenous
Details: in vivo

Row | Structure (SMILES) | Tmax [h]
76 | CCN(c1nc(C)cc(C)n1)c1c(Br)cc(OC)cc1OC | 0.25

Molecular target: T2, Corticotropin-releasing factor receptor 1 (Rattus norvegicus, UniProt P35353)
T2 sequence (P35353 whole entry): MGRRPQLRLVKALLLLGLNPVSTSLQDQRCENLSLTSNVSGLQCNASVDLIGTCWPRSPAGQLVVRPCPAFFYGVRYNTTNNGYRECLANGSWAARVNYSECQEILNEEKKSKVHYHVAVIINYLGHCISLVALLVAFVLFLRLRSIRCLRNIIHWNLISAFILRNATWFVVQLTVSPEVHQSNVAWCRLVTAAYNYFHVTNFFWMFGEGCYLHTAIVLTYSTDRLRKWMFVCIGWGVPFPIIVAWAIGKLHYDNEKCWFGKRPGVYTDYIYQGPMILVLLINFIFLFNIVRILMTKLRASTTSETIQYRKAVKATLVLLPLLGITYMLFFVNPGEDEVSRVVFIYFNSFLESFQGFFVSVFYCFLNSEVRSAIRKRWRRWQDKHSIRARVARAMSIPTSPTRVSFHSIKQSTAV
Test: Binding affinity was measured on rat Corticotropin releasing factor receptor 1
Details: not given

Row | Structure (SMILES) | Ki [µM]
77 | CCc1ccc(N(C)c2nc(C)cc(C)n2)c(Br)c1 | 0.187
78 | CCN(c1nc(C)cc(C)n1)c1ccc(C(C)C)cc1I | 0.038
79 | Cc1cc(C)nc(N(C)c2ccccc2I)n1 | 3.65
80 | Cc1ccc(N(C)c2nc(C)cc(C)n2)c(Br)c1 | 1.1

Test system: not listed separately
Test: Bioavailability in rat (dose 30 mg/kg i.p.)
Type: ADME, organism-based
Details: in vivo, ip

Row | Structure (SMILES) | bioavailability [%]
81 | CCN(c1nc(C)cc(C)n1)c1c(Br)cc(OC)cc1OC | 4

Test system: not listed separately
Test: Tmax is the time taken to reach maximum concentration was measured on rat at dose 30 mg/kg after intraperitoneal administration.
Type: ADME, organism-based
Parameters: dose 30 mg/kg, route intraperitoneal
Details: in vivo, ip

Row | Structure (SMILES) | Tmax [h]
82 | CCN(c1nc(C)cc(C)n1)c1c(Br)cc(OC)cc1OC | 1.2

Test system: not listed separately
Test: The clearance was measured in rat at dose 30 mg/kg after intravenous administration.
Type: ADME, organism-based
Parameters: dose 30 mg/kg, route intravenous
Details: in vivo

Row | Structure (SMILES) | clearance [L/h/kg]
83 | CCN(c1nc(C)cc(C)n1)c1c(Br)cc(OC)cc1OC | 5.32

Test system: not listed separately
Test: The maximum concentration of the compound was measured in rat at dose 30 mg/kg after intraperitoneal administration.
Type: ADME, organism-based
Parameters: dose 30 mg/kg, route intraperitoneal
Details: in vivo, ip

Row | Structure (SMILES) | Cmax [µM]
84 | CCN(c1nc(C)cc(C)n1)c1c(Br)cc(OC)cc1OC | 0.366
